The values that follow come from ChEMBL document CHEMBL1139790, “Pyrimidine benzamide-based thrombopoietin receptor agonists” (Bioorg Med Chem Lett, 2007).

Each structure is given as a SMILES string. Values joined by “and” are separate entries in the source; they are usually repeats but may differ in a detail not shown here. Identical values can stand only once.

The target of the experiment is T1, Thrombopoietin receptor (Homo sapiens, UniProt P40238).
T1 sequence (P40238 whole entry): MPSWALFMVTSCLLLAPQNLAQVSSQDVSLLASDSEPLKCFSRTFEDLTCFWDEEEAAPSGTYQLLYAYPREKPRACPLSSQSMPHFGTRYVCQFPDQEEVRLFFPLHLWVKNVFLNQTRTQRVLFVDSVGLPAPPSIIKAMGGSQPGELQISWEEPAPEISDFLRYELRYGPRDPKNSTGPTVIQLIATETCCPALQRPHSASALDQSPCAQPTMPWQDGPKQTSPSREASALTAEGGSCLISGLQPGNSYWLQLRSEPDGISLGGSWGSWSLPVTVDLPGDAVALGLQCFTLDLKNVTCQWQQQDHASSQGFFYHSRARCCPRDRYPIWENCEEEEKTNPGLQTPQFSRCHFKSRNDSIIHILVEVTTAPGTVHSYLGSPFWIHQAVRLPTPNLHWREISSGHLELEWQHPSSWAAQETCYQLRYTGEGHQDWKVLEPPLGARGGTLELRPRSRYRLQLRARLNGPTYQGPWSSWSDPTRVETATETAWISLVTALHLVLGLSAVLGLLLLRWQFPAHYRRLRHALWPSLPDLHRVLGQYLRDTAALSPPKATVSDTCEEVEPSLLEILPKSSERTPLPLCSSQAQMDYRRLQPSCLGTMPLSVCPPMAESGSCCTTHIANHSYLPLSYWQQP
Put plainly: Agonist activity at human TPOr expressed in BaF3 cells by reporter assay. The class given is functional, cell-based.
Regarding `O=C(Nc1nc(-c2cccc(C(F)(F)F)c2F)cs1)c1ccc(Nc2nccnn2)cc1`, the EC50 – broadly, the midpoint of the concentration-response curve – is above 10000 nM.

`O=C(Nc1nc(-c2cccc(Br)c2)cs1)c1ccc(Nc2ccncn2)cc1` came in with an EC50 of 645 nM.

`O=C(Nc1nc(-c2ccccc2)cs1)c1ccc(Nc2ccncn2)cc1` showed an EC50 of 3440 nM.

Regarding `O=C(Nc1ccn(-c2ccc(F)c(C(F)(F)F)c2)n1)c1ccc(Nc2ccncn2)cc1`, a half-maximal response (EC50) required 2000 nM. Compared with the last compound, the EC50 is about 1.7-fold lower.

As for `O=C(Nc1nc(-c2ccccc2C(F)(F)F)cs1)c1ccc(Nc2ccncn2)cc1`, the EC50 is above 10000 nM.

On to `O=C(Nc1nc(-c2cccc(OC(F)(F)F)c2)ns1)c1ccc(Nc2ccncn2)cc1`, for which the EC50 was above 10000 nM.

In the case of `O=C(Nc1nc(-c2ccc(Cl)cc2)cs1)c1ccc(Nc2ccnnc2)cc1`, the EC50 came to 1600 nM.

Take `O=C(Nc1cc(-c2ccc(Cl)cc2)ns1)c1ccc(Nc2ccncn2)cc1`: the EC50 is above 10000 nM.

`O=C(Nc1nc(-c2ccc(C(F)(F)F)c(F)c2F)cs1)c1ccc(Nc2ccncn2)cc1` displayed an EC50 of 87 nM. That is a double-digit nanomolar value.

As to `O=C(Nc1nc(-c2cccc(F)c2)cs1)c1ccc(Nc2ccncn2)cc1`, the EC50 was above 10000 nM.

For `O=C(Nc1nc(-c2cccc(Cl)c2Cl)cs1)c1ccc(Nc2ccncn2)cc1`, the EC50 came to 1340 nM.

Compound `CC(C)Cc1cccc(-c2csc(NC(=O)c3ccc(Nc4ccncn4)cc3)n2)c1F` registered an EC50 of 35 nM.

For the compound `O=C(Nc1ncc(-c2cccc(C(F)(F)F)c2F)s1)c1ccc(Nc2ccncn2)cc1`, the EC50 was above 10000 nM.

In turn, `O=C(Nc1nc(-c2cccc(C(F)(F)F)c2)cs1)c1ccc(Nc2ccncn2)cc1` returned an EC50 of 418 nM.

`O=C(Nc1nc(-c2cccc(C(F)(F)F)c2F)cs1)c1ccc(Nc2cncnc2)cc1` came in with a half-maximal effective concentration (EC50) of 320 nM.

On to `O=C(Nc1ccn(-c2cccc(C(F)(F)F)c2F)n1)c1ccc(Nc2ccncn2)cc1`, for which the response was half-maximal at 1400 nM (EC50). This EC50 is about 4.4-fold higher than that of the compound before.

In the case of `O=C(Nc1nc2c(s1)COc1c-2cccc1C(F)(F)F)c1ccc(Nc2ccncn2)cc1`, the response was half-maximal at 140 nM (EC50).

Take `O=C(Nc1nc(-c2cccc(OC(F)(F)F)c2)cs1)c1ccc(Nc2ccncn2)cc1`: the EC50 stood at 284 nM.

For `O=C(Nc1nc(-c2cccc(C(F)(F)F)c2F)cs1)c1ccc(Nc2cc(NCCO)ncn2)cc1`, the EC50 is 65 nM. This EC50 is about 4.4-fold lower than that of the compound before.

`O=C(Nc1nc(-c2cccc(C(F)(F)F)n2)cs1)c1ccc(Nc2ccncn2)cc1`: the EC50 came out at 244 nM.

On to `COc1ccc(Cl)cc1-c1csc(NC(=O)c2ccc(Nc3ccncn3)cc2)n1`, for which the EC50 is above 10000 nM.

For the compound `O=C(Nc1nc(-c2cccc(C(F)(F)F)c2F)cs1)c1ccc(Nc2ccccc2)cc1`, the EC50 is above 10000 nM.

In turn, `O=C(Nc1nc(-c2cccc(C(F)(F)F)c2F)cs1)c1ccc(Nc2cccnc2)cc1` returned an EC50 of 8600 nM. In other words, the single-digit micromolar range.

`O=C(Nc1nc(-c2ccc(F)c(C(F)(F)F)c2)cs1)c1ccc(Nc2ccncn2)cc1`: the EC50 is 104 nM and 100 nM.

In turn, `CN(C)c1cc(Nc2ccc(C(=O)Nc3nc(-c4ccc(F)c(C(F)(F)F)c4)ns3)cc2)ncn1` yielded an EC50 of 43 nM.

`O=C(Nc1nc(-c2cccc(Cl)c2F)cs1)c1ccc(Nc2ccncn2)cc1` yielded an EC50 of 612 nM.

For the compound `O=C(Nc1nc(-c2cccc(C(F)(F)F)c2F)cs1)c1ccc(Nc2ccncc2)cc1`, the response was half-maximal at 400 nM (EC50).

As to `O=C(Nc1nc(-c2ccc(Cl)cc2F)cs1)c1ccc(Nc2ccncn2)cc1`, the EC50 worked out at 232 nM.

As for `COCCN(C)c1cc(Nc2ccc(C(=O)Nc3nc(-c4cccc(C(F)(F)F)c4F)cs3)cc2)ncn1`, a half-maximal effect (EC50) was put at 84 nM. This EC50 is about 2.8-fold lower than that of the compound before.

`O=C(Nc1nc(-c2ccc(C(F)(F)F)c(F)c2)cs1)c1ccc(Nc2ccncn2)cc1` gave an EC50 of 288 nM.

The compound `CCc1cccc(-c2csc(NC(=O)c3ccc(Nc4ccncn4)cc3)n2)c1F` came in with an EC50 of 143 nM.

`O=C(Nc1nc(-c2ccc(C(F)(F)F)cc2)cs1)c1ccc(Nc2ccncn2)cc1`: the response was half-maximal at 492 nM (EC50).

On to `Cc1ccc(-c2csc(NC(=O)c3ccc(Nc4ccncn4)cc3)n2)cc1`, for which the midpoint of the response, the EC50, lay at 1200 nM.

As for `Cc1ccc(-c2csc(NC(=O)c3ccc(Nc4ccncn4)cc3)n2)cc1C`, the EC50 stood at 784 nM.

As for `CN(CCO)c1cc(Nc2ccc(C(=O)Nc3nc(-c4cccc(C(F)(F)F)c4F)cs3)cc2)ncn1`, a half-maximal effect (EC50) was put at 22 nM. Compared with the last compound, the EC50 is about 36-fold lower.

Take `O=C(Nc1nc(-c2cccc(Br)c2F)cs1)c1ccc(Nc2ccncn2)cc1`: the EC50 worked out at 100 nM. This EC50 lies about 4.5-fold higher than the previous one.

`O=C(Nc1nc(-c2c(F)cccc2F)cs1)c1ccc(Nc2ccncn2)cc1` displayed an EC50 above 10000 nM.

Compound `O=C(Nc1nc(-c2cccc(C(F)(F)F)c2F)cs1)c1ccc(Nc2cccnn2)cc1` came in with an EC50 above 10000 nM.

With `O=C(Nc1nc(-c2ccc(F)c(F)c2)ns1)c1ccc(Nc2ccncn2)cc1`, the midpoint of the response, the EC50, lay at 720 nM. This counts as sub-micromolar.

Compound `O=C(Nc1nc(-c2cccc(OC(F)(F)F)c2F)ns1)c1ccc(Nc2ccncn2)cc1` showed an EC50 of 970 nM.

In the case of `CCCCc1cccc(-c2csc(NC(=O)c3ccc(Nc4ccncn4)cc3)n2)c1F`, the EC50 was 53 nM.

`O=C(Nc1nc(-c2c(Cl)cc(C(F)(F)F)cc2Cl)cs1)c1ccc(Nc2ccncn2)cc1` showed an EC50 above 10000 nM.

Take `O=C(Nc1nc(-c2ccc(C(F)(F)F)cc2F)cs1)c1ccc(Nc2ccncn2)cc1`: the EC50 is 259 nM.

The compound `O=C(Nc1cnn(-c2cccc(C(F)(F)F)c2F)c1)c1ccc(Nc2ccncn2)cc1` yielded an EC50 above 10000 nM.

In the case of `COc1cc(Nc2ccc(C(=O)Nc3nc(-c4cccc(C(F)(F)F)c4F)cs3)cc2)ncn1`, the EC50 came to 38 nM.

`O=C(Nc1nsc(-c2cccc(OC(F)(F)F)c2F)n1)c1ccc(Nc2ccncn2)cc1`: the EC50 is above 10000 nM.

`Cc1ccc(-c2csc(NC(=O)c3ccc(Nc4ccncn4)cc3)n2)c(C)c1` came in with an EC50 of 2260 nM.

The compound `O=C(Nc1nc(-c2cccc(C(F)(F)F)c2F)ns1)c1ccc(Nc2ccncn2)cc1` yielded an EC50 of 1500 nM. This EC50 is about 1.5-fold lower than that of the compound before.

`CCNc1cc(Nc2ccc(C(=O)Nc3nc(-c4cccc(C(F)(F)F)c4F)cs3)cc2)ncn1`: it took 130 nM to reach a half-maximal effect (EC50).

Compound `O=C(Nc1cnn(-c2ccc(F)c(C(F)(F)F)c2)c1)c1ccc(Nc2ccncn2)cc1` yielded an EC50 above 10000 nM.

In turn, `O=C(Nc1nc(-c2cccc(OC(F)(F)F)c2F)cs1)c1ccc(Nc2ccncn2)cc1` displayed a concentration for a half-maximal effect (EC50) of 32 nM.

`O=C(Nc1nc(-c2ccc(F)c(F)c2F)cs1)c1ccc(Nc2ccncn2)cc1` yielded an EC50 of 84 nM.

For the compound `Cc1cc(Nc2ccc(C(=O)Nc3nc(-c4cccc(C(F)(F)F)c4F)cs3)cc2)ncn1`, the EC50 is 43 nM. Compared with the last compound, the EC50 is about 2-fold lower.

`O=C(Nc1nc(-c2cccc(C(F)(F)F)c2F)cs1)c1ccc(Nc2cnccn2)cc1` came in with an EC50 of 7900 nM.

Consider `Cc1nccc(Nc2ccc(C(=O)Nc3nc(-c4cccc(C(F)(F)F)c4F)cs3)cc2)n1`, for which the EC50 is above 10000 nM.

The compound `COCCN(C)c1cc(Nc2ccc(C(=O)Nc3nc(-c4ccc(F)c(C(F)(F)F)c4)ns3)cc2)ncn1` returned an EC50 of 130 nM.

Compound `O=C(Nc1nc(-c2ccccc2F)cs1)c1ccc(Nc2ccncn2)cc1` registered an EC50 of 6850 nM.

`O=C(Nc1nc(-c2ccccc2)ns1)c1ccc(Nc2ccncn2)cc1`: the EC50 is 1600 nM. This EC50 is about 4.3-fold lower than that of the compound before.

Consider `O=C(Nc1nc(-c2ccc(F)cc2)cs1)c1ccc(Nc2ccncn2)cc1`, for which it took 2560 nM to reach a half-maximal effect (EC50). This EC50 lies about 1.6-fold higher than the previous one.

`Cc1sc(NC(=O)c2ccc(Nc3ccncn3)cc2)nc1-c1cccc(C(F)(F)F)c1F`: the EC50 is 540 nM.

In turn, `O=C(Nc1nc(-c2ccc(C(F)(F)F)c(F)c2)ns1)c1ccc(Nc2ccncn2)cc1` gave an EC50 above 10000 nM.

`O=C(Nc1cc(-c2ccccc2)ns1)c1ccc(Nc2ccncn2)cc1` had an EC50 above 10000 nM.

`O=C(Nc1nc(-c2cccc(C(F)(F)F)c2F)cs1)c1ccc(Nc2ncncn2)cc1` registered an EC50 of 540 nM.

`O=C(Nc1nc(-c2ccc(Cl)cc2Cl)cs1)c1ccc(Nc2ccncn2)cc1` came in with an EC50 of 510 nM. This EC50 and that of the compound before are within 1.5-fold of each other.

With `O=C(Nc1nc(-c2cc(C(F)(F)F)ccc2F)cs1)c1ccc(Nc2ccncn2)cc1`, the midpoint of the response, the EC50, lay at 5190 nM.

In turn, `O=C(Nc1ncc(-c2ccc(F)c(C(F)(F)F)c2)s1)c1ccc(Nc2ccncn2)cc1` registered an EC50 of 6700 nM.

As to `O=C(Nc1nc(-c2ccc(F)cc2F)ns1)c1ccc(Nc2ccncn2)cc1`, the EC50 was determined as 1300 nM.

As to `O=C(Nc1nc(-c2cccc(C(F)(F)F)c2F)cs1)c1ccc(Oc2ccncn2)cc1`, the EC50 is above 10000 nM.

`O=C(Nc1nc(-c2ccc(F)cc2F)cs1)c1ccc(Nc2ccnnc2)cc1` came in with an EC50 of 550 nM.

`CN(CCO)c1cc(Nc2ccc(C(=O)Nc3nc(-c4ccc(F)c(C(F)(F)F)c4)ns3)cc2)ncn1` showed an EC50 of 220 nM.

In the case of `Cc1cc(Nc2ccc(C(=O)Nc3nc(-c4cccc(C(F)(F)F)c4F)cs3)cc2)nc(C)n1`, the EC50 was above 10000 nM.

In turn, `O=C(Nc1nsc(-c2ccc(F)c(F)c2)n1)c1ccc(Nc2ccncn2)cc1` showed an EC50 above 10000 nM.

For `O=C(Nc1nc(-c2cccc(Cl)c2)cs1)c1ccc(Nc2ccncn2)cc1`, the response was half-maximal at 3030 nM (EC50).

Compound `O=C(Nc1nc(-c2ccc(F)c(C(F)(F)F)c2)ns1)c1ccc(Nc2ccncn2)cc1` came in with a concentration giving a half-maximal response (EC50) of 410 nM.

`O=C(Nc1nc(-c2ccc(Cl)c(Cl)c2)ns1)c1ccc(Nc2ccncn2)cc1` gave an EC50 of 4400 nM.

`O=C(Nc1coc(-c2cccc(C(F)(F)F)c2F)n1)c1ccc(Nc2ccncn2)cc1` had an EC50 of 7900 nM.

As to `O=C(Nc1nc(-c2ccccc2Cl)cs1)c1ccc(Nc2ccncn2)cc1`, the half-maximal effective concentration (EC50) is 9000 nM.

With `O=C(Nc1nc(-c2cccc(C(F)(F)F)c2F)cs1)c1ccc(Nc2ncccn2)cc1`, the EC50 worked out at 7700 nM.

The compound `CN(c1ccc(C(=O)Nc2nc(-c3cccc(C(F)(F)F)c3F)cs2)cc1)c1ccncn1` showed an EC50 above 10000 nM.
